Experimental data as given in patent publication US9315546B2, “Growth hormone secretatogue receptor antagonists and uses thereof” (The Administrators of the Tulane Educational Fund, priority 2010, dated 2016).
Values joined by “and” are separate entries in the source; they are usually repeats but may differ in a detail not shown here. Equal entries are not always repeated. Where no end group is shown, it is not given here. [ ]: non-standard residue; d: D form. d2Nal = N[C@H](Cc1ccc2ccccc2c1)C(=O)O; Orn = NCCC[C@H](N)C(=O)O; Aib = CC(C)(N)C(=O)O; GABA = NCCCC(=O)O; βAla = NCCC(=O)O

Biological target: Ghrelin/GHRP/GHS Receptor (Rattus norvegicus, UniProt O08725)
Sequence (O08725 whole entry): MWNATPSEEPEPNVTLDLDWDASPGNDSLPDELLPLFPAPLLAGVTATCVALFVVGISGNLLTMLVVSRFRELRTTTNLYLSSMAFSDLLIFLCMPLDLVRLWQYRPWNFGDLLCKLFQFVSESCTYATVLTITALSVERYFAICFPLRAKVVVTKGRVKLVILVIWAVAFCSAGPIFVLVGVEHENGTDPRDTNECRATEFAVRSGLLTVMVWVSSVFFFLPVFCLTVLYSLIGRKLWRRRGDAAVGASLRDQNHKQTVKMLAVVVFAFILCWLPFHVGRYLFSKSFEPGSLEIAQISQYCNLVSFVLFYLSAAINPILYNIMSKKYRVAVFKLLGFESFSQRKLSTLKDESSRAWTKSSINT
Experiment: In vivo GH release in rat after i.v. peptide (serum GH by RIA)
Protocol: For the in vivo assay of GH Release in rat, immature female Sprague Dawley rats were obtained from Charles River from Wilmington, Mass. After arrival they were housed at 25° C. with a 14:10 h light:dark cycle. Water and Purina rat chow were available at libitum. Pups were weaned at 21 days of age.
Immature twenty six day old female Sprague Dawley rats, 3-6 rats per treatment dose, were pretreated with pentobarbital 20 minutes before iv injection of vehicle/peptide or peptide plus stimulator. Injection was made as a 0.1 ml solution. For the non-pentobarbital treated rat assay, peptides were administered iv into the tail vein of conscious rats. All animals were sacrificed by guillotine after iv peptide or vehicle. Trunk blood was collected at +10-15 minutes […], allowed to clot, centrifuged and serum stored until assayed for GH levels by RIA. The GH RIA reagents were distributed by the NIH. Control data was collected from rats treated with only the corresponding vehicle in the absence of peptide or stimulator. Control stimulated data was collected from rats treated with stimulator alone in the absence of any peptide.

[1] = peptide antagonist 30 μg i.v. + stimulator 0.3 μg
[2] = peptide antagonist 3 μg i.v. + stimulator 1 μg
[3] = peptide antagonist 10 μg i.v. + stimulator 1 μg
[4] = peptide antagonist 30 μg i.v. + stimulator 1 μg
[5] = peptide antagonist 100 μg i.v. + stimulator 1 μg
[6] = Table 5, peptide alone 1 μg i.v.
[7] = Table 5, peptide alone 3 μg i.v.
[8] = Table 3, peptide alone 1 μg i.v.
[9] = Table 3, peptide alone 3 μg i.v.
[10] = Table 3, peptide alone 10 μg i.v.
[11] = Table 3, peptide alone 30 μg i.v.
[12] = Table 3, peptide alone 100 μg i.v.
[13] = Table 5, peptide alone 10 μg i.v.
[14] = Non-Pentobarbital Rats, peptide 30 μg i.v. + stimulator 10 μg
[15] = Non-Pentobarbital Rats, peptide alone 30 μg i.v.
[16] = Table 5, peptide alone 30 μg i.v.
[17] = Pentobarbital Rats, peptide alone 30 μg i.v.
[18] = Pentobarbital Rats, peptide alone 100 μg i.v.

In the case of “AH[dW][dK]W[dF]K-NH2 [5-Ala-His-DTrp-DLys-Trp-DPhe-Lys-NH2]”, the “Stimulated GH release” value [1] is reported as 1487 ± 397 ng/mL.

For “Alaψ[CH2NH]-DβNal-Ala-Trp-DPhe-Lys-NH2 [6-Alaψ[CH2NH]-DβNal-Ala-Trp-DPhe-Lys-NH2]”, the “Stimulated GH release” value [2] was 2771 ± 157 ng/mL, the “Stimulated GH release” value [3] was 2341 ± 416 ng/mL and the “Stimulated GH release” value [4] was 1948 ± 450 ng/mL. The “Stimulated GH release” value [5] was 1639 ± 221 ng/mL.

With “Alaψ[CH2NH]His-DTrp-Ala-Trp-DPhe-Lys-NH2” the “Unstimulated Basal GH release” value [6] was 127 ± 32 ng/mL and the “Unstimulated Basal GH release” value [7] was 147 ± 37 ng/mL.

With “DAla-DcyclohexylAla-Ala-Phe-DPhe-Nle-NH2” the “Unstimulated Basal GH release” value [8] was 435 ± 152 ng/mL, the “Unstimulated Basal GH release” value [9] was 195 ± 34 ng/mL and the “Unstimulated Basal GH release” value [10] was 250 ± 41 ng/mL. For the same substance, the “Unstimulated Basal GH release” value [11] was 393 ± 51 ng/mL and the “Unstimulated Basal GH release” value [12] was 697 ± 75 ng/mL.

With “DAla-DβNal-Ala-Ala-DAla-Lys-NH2 [6-DAla-DβNal-Ala-Ala-DAla-Lys-NH2]” the “Unstimulated Basal GH release” value [9] was 235 ± 43 ng/mL, the “Unstimulated Basal GH release” value [10] was 178 ± 33 ng/mL and the “Unstimulated Basal GH release” value [11] was 172 ± 15 ng/mL. For the same substance, the “Unstimulated Basal GH release” value [12] was 185 ± 39 ng/mL.

In the case of “DThr-DαNal-DTrp-DPro-Arg-NH2 [5-DThr-DαNal-DTrp-DPro-Arg-NH2]”, the “Unstimulated Basal GH release” value [6] is reported as 60 ± 5 ng/mL, the “Unstimulated Basal GH release” value [7] is reported as 130 ± 24 ng/mL and the “Unstimulated Basal GH release” value [13] is reported as 134 ± 31 ng/mL.

In the case of “DcyclohexylAla-Ala-Phe-DTrp-Lys-NH2 [3-DcyclohexylAla-Ala-Phe-DTrp-Lys-NH2]”, the “Unstimulated Basal GH release” value [8] is reported as 199 ± 63 ng/mL, the “Unstimulated Basal GH release” value [9] is reported as 266 ± 68 ng/mL and the “Unstimulated Basal GH release” value [10] is reported as 199 ± 23 ng/mL. For the same substance, the “Unstimulated Basal GH release” value [11] was 346 ± 82 ng/mL and the “Unstimulated Basal GH release” value [12] was 350 ± 61 ng/mL.

“DcyclohexylAla-Ala-Trp-DPhe-NH2 [5-DcyclohexylAla-Ala-Trp-DPhe-NH2]” was tested, and the “Unstimulated Basal GH release” value [9] was 181 ± 28 ng/mL, the “Unstimulated Basal GH release” value [10] was 237 ± 18 ng/mL and the “Unstimulated Basal GH release” value [11] was 354 ± 81 ng/mL. For the same substance, the “Unstimulated Basal GH release” value [12] was 771 ± 76 ng/mL.

With “Glyψ[CH2NH]-DβNal-Ala-Trp-DPhe-Lys-NH2 [1-Glyψ[CH2NH]-DβNal-Ala-Trp-DPhe-Lys-NH2]” the “Stimulated GH release” value (peptide antagonist 10 μg i.v. + stimulator 0.3 μg) was 1112 ± 200 ng/mL, the “Stimulated GH release” value [3] was 2307 ± 176 ng/mL and 1842 ± 454 ng/mL and the “Stimulated GH release” value [1] was 578 ± 82 ng/mL. The “Stimulated GH release” value [4] was 890 ± 236 ng/mL and 1135 ± 140 ng/mL.

Glyψ[CH2NH]-DβNal-DLys-Trp-DPhe-Lys-NH2 was tested, and the “Stimulated GH release” value (peptide antagonist 1 μg i.v. + stimulator 1 μg) was 2305 ± 320 ng/mL, the “Stimulated GH release” value [2] was 1990 ± 196 ng/mL and the “Stimulated GH release” value [3] was 1550 ± 284 ng/mL. The “Stimulated GH release” value [4] was 946 ± 133 ng/mL and the “Stimulated GH release” value [5] was 462 ± 122 ng/mL.

“HW[dA][dW]FK-NH2 [11-His-Trp-DAla-DTrp-Phe-LysNH2]” was tested, and the “Unstimulated Basal GH release” value [8] was 204 ± 44 ng/mL, the “Unstimulated Basal GH release” value [9] was 127 ± 44 ng/mL and the “Unstimulated Basal GH release” value [10] was 83 ± 5 ng/mL.

For “H[dW]FW[dF]K-NH2 [8-His-DTrp-Phe-Trp-DPhe-Lys-NH2]”, the “Unstimulated Basal GH release” value [8] was 67 ± 14 ng/mL, the “Unstimulated Basal GH release” value [9] was 141 ± 53 ng/mL and the “Unstimulated Basal GH release” value [10] was 197 ± 70 ng/mL. For the same substance, the “Unstimulated Basal GH release” value [11] was 509 ± 48 ng/mL.

In the case of “K[dH][dW]F-NH2 [8-Lys-DHis-DTrp-Phe-NH2]”, the “Unstimulated Basal GH release” value [13] is reported as 121 ± 24 ng/mL.

“Tyr-DAla-Sar-NMePhe-NH2 [2-Tyr-DAla-Sar-NMePhe-NH2]” was tested, and the “Stimulated GH release (P + S)” value [14] was 24 ± 6 ng/mL and the “Unstimulated GH release (−S)” value [15] was 18 ± 4 ng/mL.

For “Y[dA]F[Aib]-NH2 [1-Tyr-DAla-Phe-Aib-NH2]”, the “Stimulated GH release (P + S)” value [14] was 23 ± 5 ng/mL and the “Unstimulated GH release (−S)” value [15] was 18 ± 1 ng/mL.

For “[GABA][dW][dW][Orn]-NH2 [9-γAbu-DTrp-DTrp-Orn-NH2]”, the “Unstimulated Basal GH release” value [6] was 82 ± 28 ng/mL, the “Unstimulated Basal GH release” value [13] was 90 ± 5 ng/mL and the “Unstimulated Basal GH release” value [16] was 113 ± 32 ng/mL.

With “[d2Nal]AW[dF]A-NH2 [1-DβNal-Ala-Trp-DPhe-Ala-NH2]” the “Unstimulated Basal GH release” value [8] was 623 ± 60 ng/mL, the “Unstimulated Basal GH release” value [9] was 694 ± 70 ng/mL and the “Unstimulated Basal GH release” value [10] was 654 ± 58 ng/mL. For the same substance, the “Unstimulated Basal GH release” value [11] was 713 ± 71 ng/mL.

For “[d2Nal]AW[dF]L-NH2 [7-DβNal-Ala-Trp-DPhe-Leu-NH2]”, the “Unstimulated Basal GH release” value [9] was 253 ± 79 ng/mL, the “Unstimulated Basal GH release” value [10] was 277 ± 43 ng/mL and the “Unstimulated Basal GH release” value [11] was 347 ± 66 ng/mL. For the same substance, the “Unstimulated Basal GH release” value [12] was 645 ± 117 ng/mL.

“[dA]A[dA][dW]FK-NH2 [6-DAla-Ala-DAla-DTrp-Phe-Lys-NH2]” was tested, and the “Unstimulated Basal GH release” value [13] was 228 ± 76 ng/mL, the “Unstimulated Basal GH release” value [16] was 172 ± 14 ng/mL and the “Unstimulated Basal GH release” value (Table 5, peptide alone 100 μg i.v.) was 153 ± 45 ng/mL.

“[dA][d2Nal]AT[dT]K-NH2 [4-DAla-DβNal-Ala-Thr-DThr-Lys-NH2]” was tested, and the “Unstimulated Basal GH release” value [9] was 255 ± 38 ng/mL, the “Unstimulated Basal GH release” value [11] was 288 ± 31 ng/mL and the “Unstimulated Basal GH release” value [12] was 386 ± 57 ng/mL.

In the case of “[dA][d2Nal][dA][dW]FK-NH2 [9-DAla-DβNal-DAla-DTrp-Phe-Lys-NH2]”, the “Unstimulated Basal GH release” value [8] is reported as 184 ± 55 ng/mL, the “Unstimulated Basal GH release” value [9] is reported as 467 ± 201 ng/mL and the “Unstimulated Basal GH release” value [10] is reported as 244 ± 107 ng/mL.

For “[dA][d2Nal][dK][dW]FK-NH2 [3-DAla-DβNal-DLys-DTrp-Phe-Lys-NH2]”, the “Stimulated GH release (P + S)” value (Pentobarbital Rats, peptide 30 μg i.v. + stimulator 1 μg) was 2864 ± 828 ng/mL, the “Stimulated GH release (P + S)” value (Pentobarbital Rats, peptide 100 μg i.v. + stimulator 1 μg) was 1198 ± 114 ng/mL and the “Unstimulated GH release (−S)” value [17] was 323 ± 50 ng/mL. For the same substance, the “Unstimulated GH release (−S)” value [18] was 812 ± 6 ng/mL, the “Stimulated GH release” value [4] was 2884 ± 828 ng/mL and the “Stimulated GH release” value [5] was 1198 ± 114 ng/mL.

“[dK][d2Nal]AW[dF]K-NH2 [1-DLys-DβNal-Ala-Trp-DPhe-Lys-NH2]” was tested, and the “Stimulated GH release (P + S)” value (Pentobarbital Rats, peptide 3 μg i.v. (grid head; alignment uncertain) + stimulator 0.3 μg) was 5232 ± 346 ng/mL, the “Stimulated GH release (P + S)” value (Pentobarbital Rats, peptide 10 μg i.v. (grid head; alignment uncertain) + stimulator 0.3 μg) was 3404 ± 396 ng/mL and the “Stimulated GH release (P + S)” value (Pentobarbital Rats, peptide 30 μg i.v. + stimulator 0.3 μg) was 704 ± 169 ng/mL. For the same substance, the “Unstimulated GH release (−S)” value (Pentobarbital Rats, peptide alone 3 μg i.v. (grid head; alignment uncertain)) was 616 ± 169 ng/mL, the “Unstimulated GH release (−S)” value (Pentobarbital Rats, peptide alone 10 μg i.v. (grid head; alignment uncertain)) was 847 ± 17 ng/mL and the “Unstimulated GH release (−S)” value [17] was 629 ± 146 ng/mL. The “Unstimulated GH release (−S)” value [18] was 228 ± 45 ng/mL.

For “[βAla]W[dA][dW]F-NH2 [10-βAla-Trp-DAla-DTrp-Phe-NH2]”, the “Unstimulated Basal GH release” value [11] was 341 ± 46 ng/mL and the “Unstimulated Basal GH release” value [12] was 636 ± 171 ng/mL.

For “inip-Trp-Trp-Phe-NH2 [10-inip-Trp-Trp-Phe-NH2]”, the “Unstimulated Basal GH release” value [13] was 69 ± 3 ng/mL and the “Unstimulated Basal GH release” value [16] was 81 ± 10 ng/mL.

For “αAbu-DTrp-DTrp-Orn-NH2 [4-αAbu-DTrp-DTrp-Orn-NH2]”, the “Unstimulated Basal GH release” value [6] was 85 ± 25 ng/mL, the “Unstimulated Basal GH release” value [13] was 88 ± 18 ng/mL and the “Unstimulated Basal GH release” value [16] was 50 ± 6 ng/mL.

For “αγAbu-DTrp-DTrp-Lys-NH2 [2-αγAbu-DTrp-DTrp-Lys-NH2]”, the “Unstimulated Basal GH release” value [6] was 57 ± 7 ng/mL, the “Unstimulated Basal GH release” value [7] was 84 ± 18 ng/mL and the “Unstimulated Basal GH release” value [13] was 62 ± 15 ng/mL.

“αγAbu-DTrp-DTrp-Orn-NH2 [3-αγAbu-DTrp-DTrp-Orn-NH2]” was tested, and the “Unstimulated Basal GH release” value [6] was 118 ± 16 ng/mL, the “Unstimulated Basal GH release” value [13] was 126 ± 27 ng/mL and the “Unstimulated Basal GH release” value [16] was 79 ± 31 ng/mL.

With “αγAbu-DTrp-DTrp-Ser-NH2 [1-αγAbu-DTrp-DTrp-Ser-NH2]” the “Unstimulated Basal GH release” value [6] was 80 ± 35 ng/mL, the “Unstimulated Basal GH release” value [13] was 62 ± 15 ng/mL and the “Unstimulated Basal GH release” value [16] was 67 ± 8 ng/mL.
